The source of these data is PMC10218303, “Novel Polymyxin-Inspired Peptidomimetics Targeting the SARS-CoV-2 Spike:hACE2 Interface” (International Journal of Molecular Sciences, 2023).

The conditions of data set [1]: amide bond, 23-membered ring.
The nature of data set [2]: in vitro. The following applies: human.
For data set [3], the system named is SARS-CoV-2 (strain 20A.EU2). Particulars: strain 20A.EU2, 2 h.
The nature of data set [4]: in vitro. The following applies: human. The source holds these as a separate data set.
The subject of data set [5] is SARS-CoV-2 (strain Delta). The following applies: for IC50: strain Delta, 2 h.
[6] abbreviates: the molecule shown is the open-chain precursor.

Where two headings read alike, the source gives them in different places. Bridge positions count the residues as written; N and C are the ends. Square brackets hold non-standard residues; d marks the D form. Peptide text beside a SMILES is read from it. Dab = NCC[C@H](N)C(=O)O

`CC(C)C[C@@H]1NC(=O)[C@@H](Cc2ccccc2)NC(=O)[C@H](Cc2ccc(OC(C)(C)C)cc2)NC(=O)[C@@H](NC(=O)[C@H](CCOC(c2ccccc2)(c2ccccc2)c2ccccc2)NC(=O)OCC2c3ccccc3-c3ccccc32)CCNC(=O)[C@H]([C@@H](C)OC(C)(C)C)NC(=O)[C@H](CCOC(c2ccccc2)(c2ccccc2)c2ccccc2)NC(=O)[C@H](Cc2cn(C(=O)OC(C)(C)C)c3ccccc23)NC1=O` gave a ring closure, isolated yield in data set [1] (from Fmoc-Hse(Trt)-Dab-Tyr(tBu)-dPhe-Leu-Trp(Boc)-Hse(Trt)-Thr(tBu)-OH?, HATU/HOAt/2,4,6-collidine, DCM/DMF, 0.7 mM) of 63%.
Compound `CC(C)C[C@@H]1NC(=O)[C@@H](Cc2ccccc2)NC(=O)[C@H](Cc2cn(C(=O)OC(C)(C)C)c3ccccc23)NC(=O)[C@@H](NC(=O)[C@H](CCNC(=O)OC(C)(C)C)NC(=O)OCC2c3ccccc3-c3ccccc32)CCNC(=O)[C@H]([C@@H](C)OC(C)(C)C)NC(=O)[C@H](CCNC(=O)OC(C)(C)C)NC(=O)[C@H](Cc2cn(C(=O)OC(C)(C)C)c3ccccc23)NC1=O` yielded a ring closure, isolated yield in data set [1] (from Fmoc-Dab(Boc)-Dab-Trp(Boc)-dPhe-Leu-Trp(Boc)-Dab(Boc)-Thr(tBu)-OH?, HATU/HOAt/2,4,6-collidine, DCM/DMF, 0.7 mM) of 70%.
For the compound `CC[C@H](C)[C@@H]1NC(=O)[C@@H](NC(=O)[C@H](CCN)NC(=O)[C@@H](NC(=O)[C@H](CC(C)C)NC(C)=O)[C@@H](C)O)CCNC(=O)[C@H](Cn2cc(CC(=O)O)nn2)NC(=O)[C@H](CCN)NC(=O)[C@H](CCN)NC(=O)[C@H](Cc2ccc(O)cc2)NC(=O)[C@@H](Cc2ccccc2)NC1=O` [monomer 2], the CC50 in data set [2] and in data set [4] was more than 50 µM each time. Besides, the 50% inhibitory concentration (IC50) in data set [3] and in data set [5] was more than 50 µM in each case.
The compound `CC(C)C[C@@H]1NC(=O)[C@@H](Cc2ccccc2)NC(=O)[C@H](Cc2ccc(OC(C)(C)C)cc2)NC(=O)[C@@H](NC(=O)[C@H](CCNC(=O)OC(C)(C)C)NC(=O)OCC2c3ccccc3-c3ccccc32)CCNC(=O)[C@H]([C@@H](C)OC(C)(C)C)NC(=O)[C@H](CCNC(=O)OC(C)(C)C)NC(=O)[C@H](Cc2cn(C(=O)OC(C)(C)C)c3ccccc23)NC1=O` returned a ring closure, isolated yield in data set [1] (from Fmoc-Dab(Boc)-Dab-Tyr(tBu)-dPhe-Leu-Trp(Boc)-Dab(Boc)-Thr(tBu)-OH?, HATU/HOAt/2,4,6-collidine, DCM/DMF, 0.71 mM) of 87%.
For `CC[C@H](C)[C@@H]1NC(=O)[C@@H](NC(=O)[C@H](CCN)NC(=O)[C@@H](NC(=O)[C@H](CC(C)C)NC(C)=O)[C@@H](C)O)CCNC(=O)[C@H](Cn2cc(CCC(=O)N[C@@H](CCN)C(=O)N[C@H]3CCNC(=O)[C@H]([C@@H](C)O)NC(=O)[C@H](CCN)NC(=O)[C@H](Cc4c[nH]c5ccccc45)NC(=O)[C@H](CC(C)C)NC(=O)[C@@H](Cc4ccccc4)NC(=O)[C@H](Cc4ccc(O)cc4)NC3=O)nn2)NC(=O)[C@H](CCN)NC(=O)[C@H](CCN)NC(=O)[C@H](Cc2ccc(O)cc2)NC(=O)[C@@H](Cc2ccccc2)NC1=O` [dimer 4], the CC50 in data set [2] and in data set [4] was more than 50 µM in each case. For the same compound, the IC50 in data set [3] and in data set [5] was more than 50 µM each time.
Consider `CC(=O)N[C@@H](CCC(=O)O)C(=O)N[C@H](C(=O)N[C@@H](CCN)C(=O)N[C@H]1CCNC(=O)[C@H](Cn2cc(CC(=O)N[C@@H](CC(C)C)C(=O)N[C@H]3CCNC(=O)[C@H]([C@@H](C)O)NC(=O)[C@H](CCN)NC(=O)[C@H](CCN)NC(=O)[C@H](CC(C)C)NC(=O)[C@@H](Cc4ccccc4)NC(=O)[C@H](Cc4c[nH]c5ccccc45)NC3=O)nn2)NC(=O)[C@H](CCN)NC(=O)[C@H](CCN)NC(=O)[C@H](Cc2ccc(O)cc2)NC(=O)[C@@H](Cc2ccccc2)NC(=O)[C@H](Cc2ccc(O)cc2)NC1=O)[C@@H](C)O` [dimer 7], for which the CC50 in data set [2] and in data set [4] was more than 50 µM in each case. Moreover, the IC50 in data set [3] and in data set [5] was more than 50 µM throughout. Further, the “antiviral effect, in words” value in data set [5] is given as “a hint of antiviral effect”.
The compound “Ac-Leu-Thr(tBu)-Dab(Boc)-Dab(H-Ala(N3))-Ile-dPhe-Tyr(tBu)-Dab(Boc)-Dab(Boc)-OH?” registered a ring closure, isolated yield in data set [1] (setting [6]) of 74%.
On the same count and under the same terms, to “Ac-Leu-Thr(tBu)-Dab(Boc)-Dab(H-Ala(N3))-Ile-dPhe-Tyr(tBu)-Hse(Trt)-Hse(Trt)-OH?” belongs 90%.
As to `CC(C)C[C@@H]1NC(=O)[C@@H](Cc2ccccc2)NC(=O)[C@H](Cc2ccc(OC(C)(C)C)cc2)NC(=O)[C@@H](NC(=O)[C@H](CCOC(c2ccccc2)(c2ccccc2)c2ccccc2)NC(=O)OCC2c3ccccc3-c3ccccc32)CCNC(=O)[C@H]([C@@H](C)OC(C)(C)C)NC(=O)[C@H](CCNC(=O)OC(C)(C)C)NC(=O)[C@H](Cc2cn(C(=O)OC(C)(C)C)c3ccccc23)NC1=O`, the ring closure, isolated yield in data set [1] (from Fmoc-Hse(Trt)-Dab-Tyr(tBu)-dPhe-Leu-Trp(Boc)-Dab(Boc)-Thr(tBu)-OH?, HATU/HOAt/2,4,6-collidine, DCM/DMF, 0.7 mM) came out at 70%.
For the compound `CC(C)C[C@H](NC(=O)OCC1c2ccccc2-c2ccccc21)C(=O)N[C@H]1CCNC(=O)[C@H]([C@@H](C)OC(C)(C)C)NC(=O)[C@H](CCNC(=O)OC(C)(C)C)NC(=O)[C@H](CCNC(=O)OC(C)(C)C)NC(=O)[C@H](CC(C)C)NC(=O)[C@@H](Cc2ccccc2)NC(=O)[C@H](Cc2cn(C(=O)OC(C)(C)C)c3ccccc23)NC1=O`, in data set [1] (from Fmoc-Leu-Dab-Trp(Boc)-dPhe-Leu-Dab(Boc)-Dab(Boc)-Thr(tBu)-OH?, HATU/HOAt/2,4,6-collidine, DCM/DMF, 0.7 mM), the ring closure, isolated yield is 78%.
Compound `CC[C@H](C)[C@@H]1NC(=O)[C@@H](NC(=O)[C@H](CCNC(=O)OC(C)(C)C)NC(=O)[C@@H](NC(=O)[C@H](CC(C)C)NC(C)=O)[C@@H](C)OC(C)(C)C)CCNC(=O)[C@H](CN=[N+]=[N-])NC(=O)[C@H](CCNC(=O)OC(C)(C)C)NC(=O)[C@H](CCNC(=O)OC(C)(C)C)NC(=O)[C@H](Cc2ccc(OC(C)(C)C)cc2)NC(=O)[C@@H](Cc2ccccc2)NC1=O` gave a ring closure, isolated yield in data set [1] (from Ac-Leu-Thr(tBu)-Dab(Boc)-Dab(H-azidoAla)-Ile-dPhe-Tyr(tBu)-Dab(Boc)-Dab(Boc)-OH, HATU/HOAt/2,4,6-collidine, DCM/DMF 14:1, 0.7 mM) of 74%.
Turning to `CC(=O)N[C@@H](CCC(=O)O)C(=O)N[C@H](C(=O)N[C@@H](CCN)C(=O)N[C@H]1CCNC(=O)[C@H](Cn2cc(CC(=O)O)nn2)NC(=O)[C@H](CCN)NC(=O)[C@H](CCN)NC(=O)[C@H](CC(C)C)NC(=O)[C@@H](Cc2ccccc2)NC(=O)[C@H](Cc2ccc(O)cc2)NC1=O)[C@@H](C)O` [monomer 9], the CC50 in data set [2] and in data set [4] was more than 50 µM each time. The IC50 in data set [3] and in data set [5] was more than 50 µM in each case.
As to `CC(C)C[C@@H]1NC(=O)[C@@H](Cc2ccccc2)NC(=O)[C@H](Cc2ccc(O)cc2)NC(=O)[C@@H](NC(=O)[C@@H](N)CCN)CCNC(=O)[C@H]([C@@H](C)O)NC(=O)[C@H](CCN)NC(=O)[C@H](Cc2c[nH]c3ccccc23)NC1=O` [monomer 1] (H-[Dab][Dab]Y[dF]LW[Dab]T; lactam 2-C), the CC50 in data set [2] and in data set [4] was more than 50 µM in each case. In addition, the IC50 in data set [3] and in data set [5] was more than 50 µM throughout.
The compound “Ac-Glu(tBu)-Thr(tBu)-Dab(Boc)-Dab(H-Ala(N3))-Tyr(tBu)-dPhe-Leu-Dab(Boc)-Dab(Boc)-OH?” returned a ring closure, isolated yield in data set [1] (setting [6]) of 65%.
For the compound `CC(C)C[C@@H]1NC(=O)[C@@H](Cc2ccccc2)NC(=O)[C@H](Cc2c[nH]c3ccccc23)NC(=O)[C@@H](NC(=O)[C@@H](N)CCN)CCNC(=O)[C@H]([C@@H](C)O)NC(=O)[C@H](CCN)NC(=O)[C@H](Cc2c[nH]c3ccccc23)NC1=O` [monomer 8] (H-[Dab][Dab]W[dF]LW[Dab]T; lactam 2-C), the CC50 in data set [2] and in data set [4] was more than 50 µM throughout. The IC50 in data set [3] and in data set [5] was more than 50 µM each time. Also, in data set [5], the “antiviral effect, in words” value is given as “a hint of antiviral effect”.
Regarding `CC[C@H](C)[C@@H]1NC(=O)[C@@H](NC(=O)[C@H](CCN)NC(=O)[C@@H](NC(=O)[C@H](CC(C)C)NC(C)=O)[C@@H](C)O)CCNC(=O)[C@H](Cn2cc(CC(=O)N[C@@H](CCN)C(=O)N[C@H]3CCNC(=O)[C@H]([C@@H](C)O)NC(=O)[C@H](CCN)NC(=O)[C@H](Cc4c[nH]c5ccccc45)NC(=O)[C@H](CC(C)C)NC(=O)[C@@H](Cc4ccccc4)NC(=O)[C@H](Cc4ccc(O)cc4)NC3=O)nn2)NC(=O)[C@H](CCN)NC(=O)[C@H](CCN)NC(=O)[C@H](Cc2ccc(O)cc2)NC(=O)[C@@H](Cc2ccccc2)NC1=O` [dimer 3], the CC50 in data set [2] and in data set [4] was more than 50 µM each time. Further, the IC50 in data set [3] and in data set [5] was more than 50 µM each time.
As to `CC(=O)N[C@@H](CCC(=O)O)C(=O)N[C@H](C(=O)N[C@@H](CCN)C(=O)N[C@H]1CCNC(=O)[C@H](Cn2cc(CC(=O)O)nn2)NC(=O)[C@H](CCN)NC(=O)[C@H](CCN)NC(=O)[C@H](Cc2ccc(O)cc2)NC(=O)[C@@H](Cc2ccccc2)NC(=O)[C@H](Cc2ccc(O)cc2)NC1=O)[C@@H](C)O` [monomer 6], the CC50 in data set [2] and in data set [4] was more than 50 µM throughout. The half-inhibitory concentration (IC50) in data set [3] and in data set [5] was more than 50 µM throughout.
In the case of “Ac-Glu(tBu)-Thr(tBu)-Dab(Boc)-Dab(H-Ala(N3))-Tyr(tBu)-dPhe-Tyr(tBu)-Dab(Boc)-Dab(Boc)-OH?”, the ring closure, isolated yield in data set [1] (setting [6]) was 48%.
For the compound `CC(C)C[C@@H]1NC(=O)[C@@H](Cc2ccccc2)NC(=O)[C@H](Cc2c[nH]c3ccccc23)NC(=O)[C@@H](NC(=O)[C@@H](N)CC(C)C)CCNC(=O)[C@H]([C@@H](C)O)NC(=O)[C@H](CCN)NC(=O)[C@H](CCN)NC1=O` [monomer 5] (H-L[Dab]W[dF]L[Dab][Dab]T; lactam 2-C), the CC50 in data set [2] and in data set [4] was more than 50 µM in each case. Also, the IC50 in data set [3] and in data set [5] was more than 50 µM throughout.
